The values below come from patent publication US20090054382A1, “COMPOSITIONS OF PHOSPHODIESTERASE TYPE IV INHIBITORS” (priority 2005, published 2009).

The subject of assay [1] is TNF-α release from human PBMCs. Description: Cell based assay for TNF-α release, PDE IV inhibitor in combination with p38 MAP Kinase inhibitors. Conditions: inhibiting TNF-α release from human PBMCs. How it is done: Blood was collected in heparin or EDTA vacutainers from healthy human volunteers and Peripheral Blood Mononuclear Cells isolated using Ficoll Hypaque gradient. The cells were resuspended in serum free RPMI 1640 medium at a concentration of 2 million cells/ml.). […] of this cell suspension was co-incubated with 20 μl of compound, alone or in combination, for 10 min in a flat bottom 96 well microtiter plate. Compounds were dissolved in DMSO initially and diluted in medium for a final concentration of 0.2% DMSO. LPS (1 μg/ml, final concentration) was then added at a volume of 10 μl per well. After 30 min, 20 μl of fetal calf serum (final concentration of 10%) was added to each well. Cultures were incubated overnight at 37° C. in an atmosphere of 5% CO2 and 95% air. Supernatant were then removed and tested by ELISA for TNF-α release using a commercial kit (e.g. BD Biosciences). The level of TNF-α in treated wells was compared with the vehicle treated controls and inhibitory potency of compound was expressed as IC50 values calculated from the percent inhibition values by using Graph pad prism.

Assay [2] concerns LPS induced airway hyperreactivity and neutrophil count in BAL. Description: In-vivo assay of PDE-IV inhibitors in combination with muscarinic receptor antagonists (LPS airway hyperreactivity and neutrophilia). Conditions: Wistar rats, intratracheal, combination with Tiotropium. The protocol:
MRA (1 ng/kg to 1 mg/kg) and PDE-IV inhibitor (1 ng/kg to 1 mg/kg) were instilled intratracheally under anesthesia either alone or in combination.
Wistar rats weighing 200±20 gm were used in the study. Rats had free access to food and water. On the day of experiment, animals were exposed to lipopolysaccharide (LPS, 100 μg/ml) for 40 min. One group of vehicle treated rats was exposed to phosphate buffered saline (PBS) for 40 min. […] The respiratory parameters were recorded online using Biosystem XA software, (Buxco Electronics, USA). Penh, at any chosen dose of acetylcholine was expressed as percent of PBS response and using a nonlinear regression analysis PC100 (2 folds of PBS value) values were computed. […]
PC100LPS=PC100 in vehicle treated and LPS challenged group PC100TEST=PC100 in group treated with a given dose of test compound PC100PBS=PC100 in vehicle treated group challenged with PBS Immediately after the airway hyperreactivity response was recorded, animals were sacrificed and bronchoalveolar lavage (BAL) performed. […] Total leukocyte and Neutrophil counts were expressed as cell count (millions cells ml^−1 of BAL). […]

With `COc1cc(C2=NO[C@]3(CCOC3)C2)ccc1OC(F)F` (single isomer, unassigned) [Compound No. 266, (5S or 5R)-3-[4-(Difluoromethoxy)-3-methoxyphenyl]-1,7-dioxa-2-azaspiro[4.4]non-2-ene], the Indication result in assay [1] is “synergistic response”. Moreover, the “synergy with muscarinic receptor antagonist (MRA)” value in assay [2] is listed as “synergy”.
